Data from EP4775582A1, “MACROCYCLIC COMPOUND AND ANTIBODY-DRUG CONJUGATE THEREOF” (Genfleet Therapeutics (Shanghai) Inc., priority 2023, dated 2025).
Where two headings read alike, the source gives them in different places.

Assays:
[1] = system: H441 p-ERK; assay: Cell p-ERK assay (HTRF), NCI-H441 cells; format: cell-based, human; details: Homo sapiens; NCI-H441 cells (KRAS G12V), 3 h incubation
Procedure, shortened: (§1)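 Phospho-ERK (T202/Y204) was measured by HTRF in lysates after 3 h compound treatment at 37 °C. Cells had been plated the previous day at 20000 per well for NCI-H441 and 10000 per well for AsPC-1. Four-parameter dose-response fitting of % inhibition gave IC50 values.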

[2] = system: AsPC-1 p-ERK; assay: Cell p-ERK assay (HTRF), AsPC-1 cells; format: cell-based, human; details: Homo sapiens
Procedure, shortened: as §1

[3] = system: NCI-H441 cells; assay: 3D cell proliferation assay (CellTiter Glo-3D), NCI-H441; format: cell-based, human; details: Homo sapiens, 120 h, NCI-H441 cells (KRAS G12V), 2% FBS, 5 days, read-out: H441 AP IC50
Procedure: (§2) The cells were digested with trypsin (containing EDTA), collected in their respective low-serum complete media containing 2% FBS (for MIA Paca-2 cell culture: DMEM + 2% FBS + 0.5% Horse serum + 1% PS), and counted. After the cell density was adjusted as required, 200 MIA PaCa-2 cells, 800 AsPC-1 cells, 800 NCI-H441 cells, or 400 NCI-H1975 cells per well were seeded into a 384-well cell culture plate, with the volume of the medium in each well being 45 µL. The cell culture plate was incubated in an incubator at 37 °C with 5% CO2 overnight. […] On the day after cell seeding, 5 µL of the 10× compound stock solution was added to each cell culture well. […] In addition to the compound-treated wells described above, cell-containing DMSO control wells (with 5 µL of the complete medium containing 1% DMSO added to each well) and cell-free medium control wells (containing 50 µL of the complete medium with 2% FBS) were also set. The culture plate was incubated in an incubator at 37 °C with 5% CO2 for another 5 days, and then 30 µL of CellTiter-Glo working solution was added to each well. The mixture was well mixed, incubated for 30 min, left to stand at room temperature for 30 min, and then transferred to a white-bottomed, opaque 384-well assay plate at 40 µL/well. […] Using an XLfit software, the IR (%) values were plotted against the logarithm of the compound concentrations, and the dose-response curves were fitted using the four-parameter method to calculate the IC50 values.

[4] = system: AsPC-1 cells; assay: 3D cell proliferation assay (CellTiter Glo-3D), AsPC-1; format: cell-based, human; details: Homo sapiens, ASPC1, 120 h
Procedure: as §2

[5] = target: KRAS WT-cRAF (Homo sapiens, UniProt P01116+P62937); assay: Assay for binding of KRAS to cRAF (HTRF, with Cyclophilin A), KRAS WT
KRAS WT-cRAF, sequence (P01116 1-188 isoform P01116-2): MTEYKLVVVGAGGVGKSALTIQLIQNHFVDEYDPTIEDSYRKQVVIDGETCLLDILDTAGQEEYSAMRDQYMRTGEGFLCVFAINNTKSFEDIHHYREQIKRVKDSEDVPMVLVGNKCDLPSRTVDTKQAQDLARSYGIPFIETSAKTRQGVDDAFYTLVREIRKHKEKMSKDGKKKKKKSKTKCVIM
KRAS WT-cRAF, sequence (P62937 whole entry): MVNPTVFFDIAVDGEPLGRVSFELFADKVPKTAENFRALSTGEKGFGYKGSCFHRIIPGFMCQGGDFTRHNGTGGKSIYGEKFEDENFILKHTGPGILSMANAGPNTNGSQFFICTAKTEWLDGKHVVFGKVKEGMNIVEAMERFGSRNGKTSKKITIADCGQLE
Procedure: (§3) The plate was centrifuged at 1000 rpm for 1 min and then incubated in the thermostatic incubator at 20 °C for 30 min. […] The plate was centrifuged at 1000 rpm for 1 min and then incubated in the thermostatic incubator at 20 °C for 60 min. […] The working solution was added to the aforementioned assay plate at 5 µL/well. The plate was centrifuged at 1000 rpm for 1 min and then incubated in the thermostatic incubator at 20 °C for 60 min.

[6] = target: KRAS G12V-cRAF (Homo sapiens, UniProt P01116+P62937, G12V); assay: Assay for binding of KRAS to cRAF (HTRF, with Cyclophilin A), KRAS G12V
KRAS G12V-cRAF, sequence (P01116 1-188 isoform P01116-2 G12V): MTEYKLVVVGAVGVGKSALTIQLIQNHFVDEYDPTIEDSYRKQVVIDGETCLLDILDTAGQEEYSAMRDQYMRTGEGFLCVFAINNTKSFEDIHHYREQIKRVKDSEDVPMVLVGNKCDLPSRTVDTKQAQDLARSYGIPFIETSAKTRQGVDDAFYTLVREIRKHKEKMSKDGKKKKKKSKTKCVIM
KRAS G12V-cRAF, sequence (P62937 whole entry): as the sequence (P62937 whole entry) above
Procedure: as §3

[7] = ASPC1, AsPC-1 cells (KRAS G12D), 3 h incubation, read-out: AsPC-1 p-ERK IC50
[8] = AsPC-1 cells (KRAS G12D), 3D, 2% FBS, 5 days, read-out: AsPC-1 AP IC50
[9] = read-out: KRAS WT-cRAF binding assay, GPPNP-KRAS WT, IC50 values
[10] = read-out: KRAS G12V-cRAF binding assay, GPPNP-KRAS G12V, IC50 values
[11] = KRAS WT-cRAF binding assay(nM), GPPNP-KRAS WT, IC50 values
[12] = KRAS G12V-cRAF binding assay(nM), GPPNP-KRAS G12V, IC50 values

Row | SMILES | IC50 [1] [nM] | IC50 [2, 7] [nM] | IC50 [3] [nM] | IC50 [4, 8] [nM] | IC50 [5, 9] [nM] | IC50 [6, 10] [nM] | IC50 [5, 11] [nM] | IC50 [6, 12] [nM] | IC50 ([2]; ASPC1, 3 h, read-out: AsPC-1 p-ERK IC50(nM)) [nM] | IC50 ([4]; read-out: AsPC-1 AP IC50(nM)) [nM]
1 | CCn1c(-c2cc(C#CCN3CCC(C#N)(CN)CC3)c[n+]([O-])c2[C@H](C)OC)c2c3cc(ccc31)-c1csc(n1)C[C@H](NC(=O)[C@H]1[C@H](C)[C@@H]1C)C(=O)N1CCC[C@H](N1)C(=O)OCC(C)(C)C2 (atropisomer, axis not shown; (Ra)) [Compound Z57, 5-(3-(4-(aminomethyl)-4-cyanopiperidin-1-yl)prop-1-yn-1-yl)-(Ra)-3-((6^3S,4S,Z)-4-((1r,2R,3S)-2,3-dimethylcyclopropane-1-carboxamido)-1^1-ethyl-10,10-dimethyl-5,7-dioxo-6^1,6^2,6^3,6^4,6^5,6^6-hexahydro-1^1H-8-oxa-2(4,2)-thiazola-1(5,3)-indola-6(1,3)-pyridazinacycloundecaphane-1^2-yl)-2-((S)-1-methoxyethyl)pyridine 1-oxide] | 1.47 | 0.81 | 1.34 | 0.47 | 38.8 | 6.3 | – | – | – | –
2 | CCn1c(-c2cc(C#CCN3CCS(=O)(=O)CC3)cnc2C(C)OC)c2c3cc(ccc31)-c1cc(N)cc(c1)CC(NC(=O)C1C(C)C1C)C(=O)N1CCCC(N1)C(=O)OCC(C)(C)C2 (atropisomer, axis not shown; (Ra)) [Compound Z22, (1r,2R,3S)-N-((6^3S,4S)-2^5-amino-(Ra)-1^2-(5-(3-(1,1-dioxidothiomorpholino)prop-1-yn-1-yl)-2-((S)-1-methoxyethyl)pyridin-3-yl)-1^1-ethyl-10,10-dimethyl-5,7-dioxo-6^1,6^2,6^3,6^4,6^5,6^6-hexahydro-1^1H-8-oxa-1(5,3)-indola-6(1,3)-pyridazina-2(1,3)-benzenacycloundecaphane-4-yl)-2,3-dimethylcyclopropane-1-carboxamide] | 1.09 | 1.54 | 2.31 | 8.37 | – | – | 47.5 | 18.6 | – | –
3 | CCn1c(-c2cc(C#CCN3CCS(=O)(=O)CC3)cnc2C(C)OC)c2c3cc(ccc31)-c1csc(n1)CC(NC(=O)C1C(C)C1C(=O)NCCO)C(=O)N1CCCC(N1)C(=O)OCC(C)(C)C2 (atropisomer, axis not shown; (Ra)) [Compound Z13-1, (1R,2R,3S)-N^1-((6^3S,4S,Z)-(Ra)-1^2-(5-(3-(1,1-dioxidothiomorpholino)prop-1-yn-1-yl)-2-((S)-1-methoxyethyl)pyridin-3-yl)-1^1-ethyl-10,10-dimethyl-5,7-dioxo-6^1,6^2,6^3,6^4,6^5,6^6-hexahydro-1^1H-8-oxa-2(4,2)-thiazola-1(5,3)-indola-6(1,3)-pyridazinacycloundecaphane-4-yl)-N^2-(2-hydroxyethyl)-3-methylcyclopropane-1,2-dicarboxamide] | – | – | 3.36 | 3.7 | – | – | 21.8 | 5.2 | – | –
4 | CCn1c(-c2cc(C#CCN3CCC(C#N)CC3)cnc2C(C)OC)c2c3cc(ccc31)-c1coc(n1)CC(NC(=O)C1C3COCC31)C(=O)N1CCCC(N1)C(=O)OCC(C)(C)C2 (atropisomer, axis not shown; (Ra)) [Compound Z168, (1R,5S,6r)-N-((6^3S,4S,Z)-(Ra)-1^2-(5-(3-(4-cyanopiperidin-1-yl)prop-1-yn-1-yl)-2-((S)-1-methoxyethyl)-pyridin-3-yl)-1^1-ethyl-10,10-dimethyl-5,7-dioxo-6^1,6^2,6^3,6^4,6^5,6^6-hexahydro-1^1H-8-oxa-2(4,2)-oxazola-1(5,3)-indola-6(1,3)-pyridazinacycloundecaphane-4-yl)-3-oxabicyclo[3.1.0]hexane-6-carboxamide] | 0.09 | 0.03 | – | – | – | – | 16.4 | 7.75 | – | –
5 | CCn1c(-c2cc(C#CCN3CCC(C#N)CC3)cnc2[C@H](C)NC)c2c3cc(ccc31)-c1csc(n1)C[C@H](NC(=O)[C@H]1[C@@H]3COC[C@@H]31)C(=O)N1CCC[C@H](N1)C(=O)OCC(C)(C)C2 (atropisomer, axis not shown; (Ra)) [Compound Z169-1, (1R,5S,6r)-N-((6^3S,4S,Z)-(Ra)-1^2-(5-(3-(4-cyanopiperidin-1-yl)prop-1-yn-1-yl)-2-((S)-1-(methylamino)ethyl)pyridin-3-yl)-1^1-ethyl-10,10-dimethyl-5,7-dioxo-6^1,6^2,6^3,6^4,6^5,6^6-hexahydro-1^1H-8-oxa-2(4,2)-thiazola-1(5,3)-indola-6(1,3)-pyridazinacycloundecaphane-4-yl)-3-oxabicyclo[3.1.0]hexane-6-carboxamide] | – | – | – | – | 58.2 | 17.5 | – | – | – | –
6 | CCn1c(-c2cc(C#CCN3CCS(=O)(=O)CC3)cnc2C(C)OC)c2c3cc(ccc31)-c1csc(n1)CC(NC(=O)C1C(C)C1C(=O)NCCO)C(=O)N1CCCC(N1)C(=O)OCC(C)(C)C2 (atropisomer, axis not shown; (Ra)) [Compound Z13-2, (1S,2S,3R)-N^1-((6^3S,4S,Z)-(Ra)-1^2-(5-(3-(1,1-dioxidothiomorpholino)prop-1-yn-1-yl)-2-((S)-1-methoxyethyl)pyridin-3-yl)-1^1-ethyl-10,10-dimethyl-5,7-dioxo-6^1,6^2,6^3,6^4,6^5,6^6-hexahydro-1^1H-8-oxa-2(4,2)-thiazola-1(5,3)-indola-6(1,3)-pyridazinacycloundecaphane-4-yl)-N^2-(2-hydroxyethyl)-3-methylcyclopropane-1,2-dicarboxamide] | – | – | – | – | – | – | 22.6 | 5.1 | – | –
7 | CCn1c(-c2cc(C#CCN3CCC(C#N)CC3)cnc2C(C)OC)c2c3cc(ccc31)-c1coc(n1)CC(NC(=O)C1C(C)C1C)C(=O)N1CCCC(N1)C(=O)OCC(C)(C)C2 (atropisomer, axis not shown; (Ra)) [Compound Z155, (1r,2R,3S)-N-((6^3S,4S,Z)-(Ra)^2-(5-(3-(4-cyanopiperidin-1-yl)prop-1-yn-1-yl)-2-((S)-1-methoxyethyl)pyridin-3-yl)-1^1-ethyl-10,10-dimethyl-5,7-dioxo-6^1,6^2,6^3,6^4,6^5,6^6-hexahydro-1^1H-8-oxa-2(4,2)-oxazola-1(5,3)-indola-6(1,3)-pyridazinacycloundecaphan-4-yl)-2,3-dimethylcyclopropanecarboxamide] | – | – | – | – | – | – | 18.7 | 8.29 | – | –
8 | CCn1c(-c2cc(C#CCN3CCC(C#N)(CO)CC3)cnc2[C@H](C)OC)c2c3cc(ccc31)-c1csc(n1)C[C@H](NC(=O)[C@H]1[C@@H]3COC[C@@H]31)C(=O)N1CCC[C@H](N1)C(=O)OCC(C)(C)C2 (atropisomer, axis not shown) [Compound Z39] | – | – | – | – | 22.1 | 9.1 | – | – | – | –
9 | CCn1c(-c2cc(C#CCN3CCS(=O)(=O)CC3)cnc2[C@H](C)OC)c2c3cc(ccc31)-c1csc(n1)C[C@H](NC(=O)[C@H]1[C@H](C)[C@@H]1CO)C(=O)N1CCC[C@H](N1)C(=O)OCC(C)(C)C2 (atropisomer, axis not shown; (Ra)) [Compound Z7-2, (1S,2S,3R)-N-((6^3S,4S,Z)-(Ra)-1^2-(5-(3-(1,1-dioxidothiomorpholino)prop-1-yn-1-yl)-2-((S)-1-methoxyethyl)pyridin-3-yl)-1^1-ethyl-10,10-dimethyl-5,7-dioxo-6^1,6^2,6^3,6^4,6^5,6^6-hexahydro-1^1H-8-oxa-2(4,2)-thiazola-1(5,3)-indola-6(1,3)-pyridazinacycloundecaphane-4-yl)-2-(hydroxymethyl)-3-methylcyclopropane-1-carboxamide] | 0.45 | – | 0.35 | – | – | – | – | – | 0.42 | 0.56
